What all share (assay type): cell-based
The test system of assay [1] is HCT15 (colon adenocarcinoma). Description: In vitro cytotoxicity, sulforhodamine B (SRB) method, HCT15. Conditions: Homo sapiens; HCT-15, SRB method; read-out: cytotoxicity (ED50) HCT-15. The method, then: (§1) The chalcone derivatives of the present invention were evaluated for in vitro cytotoxicity against human carcinoma cell lines using a sulforhodamine B (SRB) method, which was developed in 1989 by the National Cancer Institute (NCI), USA.
(§2) HCT15 (colon adenocarcinoma; ATCC CCL-225), PC-3 (prostate adenocarcinoma; ATCC CRL-1435), and A-549 (lung carcinoma; ATCC CCL-185) cell lines were used. All of these carcinoma cells were sub-cultured at the Korean Research Institute of Bioscience and Biotechnology (KRIBB), Korea.
(§3) The human carcinoma cell lines were cultured in 10% FCS-containing RPMI 1640 medium (Gibco Cat. No. 31800) in an incubator at 37° C. under 5% CO2, and sub-cultured twice per week.
(§4) Cells were detached from the attached surface using 0.25% Trypsin (Sigma) and 3 mM CDTA (1,2-cyclohexane diamine tetraacetic acid, Sigma) in phosphate buffered saline (PBS, Sigma).
(§5) Compounds to be tested (the chalcone derivatives set forth in Table 1) were dissolved in a small amount of dimethylsulfoxide (DMSO, Sigma), and diluted in culture medium to a desired concentration. The final concentration of DMSO was less than 0.5%. The diluted compounds (final concentration: 30, 10, 3, 1 and 0.3 μg/ml) were sterilized through a 0.22-μm microfilter (Millipore). The cytotoxicity of the compounds to human carcinoma cell lines was assessed using a typical SRB method.
In general terms: Sulforhodamine B stains cellular protein and so reports cell mass.

The subject of assay [2] is A-549 (lung carcinoma). Briefly: In vitro cytotoxicity, sulforhodamine B (SRB) method, A-549. Conditions: Homo sapiens, A549; A-549, SRB method; read-out: cytotoxicity (ED50) A-549. The procedure:
as §1, §2, §3, §4, §5

Assay [3] deals with PC-3 (prostate adenocarcinoma). Briefly: In vitro cytotoxicity, sulforhodamine B (SRB) method, PC-3. Conditions: Homo sapiens; PC-3, SRB method; read-out: cytotoxicity (ED50) PC-3. The method, then:
as §1, §2, §3, §4, §5

In brackets after ≈: the same amount, converted by molar mass.

As for `O=C(/C=C/c1ccc(O)cc1O)c1ccc(NS(=O)(=O)c2cccc(O)c2)cc1` [Compound 62, 4′-(m-hydroxybenzenesulfonylamino)-2,4-dihydroxychalcone], the IC50 in assay [1] is 7 µg/mL (≈ 17 µM); in assay [2], 12 µg/mL (≈ 29.2 µM); in assay [3], 8 µg/mL (≈ 19.4 µM).
As to `O=C(/C=C/c1ccccc1O)c1ccccc1NS(=O)(=O)c1cccc(O)c1` [Compound 23, 2′-(m-hydroxybenzenesulfonylamino)-2-hydroxychalcone], the IC50 is 35 µg/mL (≈ 88.5 µM) in assay [1], 31 µg/mL (≈ 78.4 µM) in assay [2] and 37 µg/mL (≈ 93.6 µM) in assay [3].
The corresponding values for `CS(=O)(=O)Nc1ccc(C(=O)/C=C/c2ccc(O)cc2)cc1` [Compound 34, 4′-(methanesulfonylamino)-4-hydroxychalcone] are 54 µg/mL (≈ 170 µM), 74 µg/mL (≈ 233 µM) and 64 µg/mL (≈ 202 µM).
`Nc1cccc(S(=O)(=O)Nc2ccc(C(=O)/C=C/c3ccc(O)c(O)c3)cc2)c1` [Compound 79, 4′-(m-aminobenzensulfonylamino)-3,4-dihydroxychalcone]: the IC50 in assay [1] was found to be 7 µg/mL (≈ 17.1 µM); in assay [2] it was 8 µg/mL (≈ 19.5 µM); in assay [3], 15 µg/mL (≈ 36.5 µM).
On to `O=C(/C=C/c1ccccc1O)c1cccc(NS(=O)(=O)c2cccc(O)c2)c1` [Compound 20, 3′-(m-hydroxybenzenesulfonylamino)-2-hydroxychalcone], for which the IC50 in assay [1] worked out at 40 µg/mL (≈ 101 µM); in assay [2] it was 35 µg/mL (≈ 88.5 µM); in assay [3], 39 µg/mL (≈ 98.6 µM).
In the same order, the values of `Nc1ccccc1S(=O)(=O)Nc1ccc(C(=O)/C=C/c2ccc(O)cc2)cc1` [Compound 32, 4′-(o-aminobenzensulfonylamino)-4-hydroxychalcone] are 47 µg/mL (≈ 119 µM), 45 µg/mL (≈ 114 µM) and 41 µg/mL (≈ 104 µM).
For the molecule `O=C(/C=C/c1ccc(O)cc1)c1ccc(OS(=O)(=O)c2ccccc2)cc1` [Compound 40, 4′-(benzenesulfonate)-4-hydroxychalcone], the IC50 worked out at 31 µg/mL in assay [1], 30 µg/mL in assay [2] and 39 µg/mL in assay [3].
For the molecule `O=C(/C=C/c1ccc(O)c(O)c1)c1ccc(NS(=O)(=O)c2ccccc2F)cc1` [Compound 74, 4′-(o-fluorobenzensulfonylamino)-3,4-dihydroxychalcone], the IC50 is 8 µg/mL (≈ 19.4 µM) in assay [1], 11 µg/mL (≈ 26.6 µM) in assay [2] and 14 µg/mL (≈ 33.9 µM) in assay [3].
As for `O=C(/C=C/c1cccc(O)c1)c1ccc(NS(=O)(=O)c2cccc(O)c2)cc1` [Compound 16, 4′-(m-hydroxybenzenesulfonylamino)-3-hydroxychalcone], the IC50 in assay [1] amounted to 37 µg/mL (≈ 93.6 µM); in assay [2], 33 µg/mL (≈ 83.5 µM); in assay [3], 47 µg/mL (≈ 119 µM).
As for `O=C(/C=C/c1cc(O)ccc1O)c1ccc(OS(=O)(=O)c2cccc(O)c2)cc1` [Compound 97, 4′-(m-hydroxybenzenesulfonate)-2,5-dihydroxychalcone], the IC50 in assay [1] is 11 µg/mL (≈ 26.7 µM); in assay [2] it was 6 µg/mL (≈ 14.5 µM); in assay [3], 8 µg/mL (≈ 19.4 µM).
On to `O=C(/C=C/c1ccccc1O)c1cccc(NS(=O)(=O)c2ccc(O)cc2)c1` [Compound 11, 3′-(p-hydroxybenzenesulfonylamino)-2-hydroxychalcone], for which the values for the IC50 in assay [1], in assay [2] and in assay [3] were 39 µg/mL (≈ 98.6 µM), 38 µg/mL (≈ 96.1 µM) and 41 µg/mL (≈ 104 µM), respectively.
In the same order, the values of `O=C(/C=C/c1ccc(O)c(O)c1)c1ccc(NS(=O)(=O)c2ccc([N+](=O)[O-])cc2)cc1` [Compound 75, 4′-(p-nitrobenzensulfonylamino)-3,4-dihydroxychalcone] are 8 µg/mL (≈ 18.2 µM), 14 µg/mL (≈ 31.8 µM) and 15 µg/mL (≈ 34.1 µM).
Turning to `O=C(/C=C/c1ccc(O)c(O)c1)c1ccc(OS(=O)(=O)c2cccc(O)c2)cc1` [Compound 94, 4′-(m-hydroxybenzenesulfonate)-3,4-dihydroxychalcone], the IC50 in assay [1] amounted to 7 µg/mL (≈ 17 µM); in assay [2], 11 µg/mL (≈ 26.7 µM); in assay [3], 16 µg/mL (≈ 38.8 µM).
Turning to `O=C(/C=C/c1cc(O)ccc1O)c1ccc(NS(=O)(=O)c2cccc(O)c2)cc1` [Compound 63, 4′-(m-hydroxybenzenesulfonylamino)-2,5-dihydroxychalcone], the IC50 in assay [1] turned out to be 8 µg/mL (≈ 19.4 µM); in assay [2], 10 µg/mL (≈ 24.3 µM); in assay [3], 14 µg/mL (≈ 34 µM).
Take `O=C(/C=C/c1ccc(O)cc1O)c1cccc(NS(=O)(=O)c2cccc(O)c2)c1` [Compound 66, 3′-(m-hydroxybenzenesulfonylamino)-2,4-dihydroxychalcone]: the IC50 in assay [1] was 11 µg/mL (≈ 26.7 µM); in assay [2], 11 µg/mL (≈ 26.7 µM); in assay [3] it was 13 µg/mL (≈ 31.6 µM).
Take `Cc1ccc(S(=O)(=O)Nc2ccc(C(=O)/C=C/c3cccc(O)c3O)cc2)cc1` [Compound 43, 4′-(p-toluenesulfonylamino)-2,3-dihydroxychalcone]: the figures for the IC50 in assay [1], in assay [2] and in assay [3] were 12 µg/mL (≈ 29.3 µM), 18 µg/mL (≈ 44 µM) and 14 µg/mL (≈ 34.2 µM), respectively.
In the same order, the values of `O=C(/C=C/c1cc(O)ccc1O)c1cccc(NS(=O)(=O)c2cccc(O)c2)c1` [Compound 67, 3′-(m-hydroxybenzenesulfonylamino)-2,5-dihydroxychalcone] are 7 µg/mL (≈ 17 µM), 14 µg/mL (≈ 34 µM) and 15 µg/mL (≈ 36.5 µM).
The corresponding values for `O=C(/C=C/c1cccc(O)c1)c1ccc(OS(=O)(=O)c2ccc(O)cc2)cc1` [Compound 85, 4′-(p-hydroxybenzenesulfonate)-3-hydroxychalcone] are 29 µg/mL (≈ 73.2 µM), 33 µg/mL (≈ 83.2 µM) and 28 µg/mL (≈ 70.6 µM).
In the same order, the values of `O=C(/C=C/c1cccc(O)c1O)c1cccc(NS(=O)(=O)c2ccc(O)cc2)c1` [Compound 53, 3′-(p-hydroxybenzenesulfonylamino)-2,3-dihydroxychalcone] are 8 µg/mL (≈ 19.4 µM), 7 µg/mL (≈ 17 µM) and 8 µg/mL (≈ 19.4 µM).
For `O=C(/C=C/c1ccc(O)c(O)c1)c1cccc(NS(=O)(=O)c2ccc(O)cc2)c1` [Compound 52, 3′-(p-hydroxybenzenesulfonylamino)-3,4-dihydroxychalcone], the IC50 in assay [1] is 7 µg/mL (≈ 17 µM); in assay [2], 6 µg/mL (≈ 14.6 µM); in assay [3], 5 µg/mL (≈ 12.2 µM).
Consider `Cc1ccc(S(=O)(=O)Nc2cccc(C(=O)/C=C/c3ccc(O)cc3)c2)cc1` [Compound 4, 3′-(p-toluenesulfonylamino)-4-hydroxychalcone], for which the values for the IC50 in assay [1], in assay [2] and in assay [3] were 38 µg/mL (≈ 96.6 µM), 34 µg/mL (≈ 86.4 µM) and 37 µg/mL (≈ 94 µM), respectively.
As to `O=C(/C=C/c1ccc(O)cc1)c1ccc(NS(=O)(=O)c2ccccc2)cc1` [Compound 33, 4′-(benzensulfonylamino)-4-hydroxychalcone], the results for the IC50 in assay [1], in assay [2] and in assay [3] were 47 µg/mL (≈ 124 µM), 45 µg/mL (≈ 119 µM) and 42 µg/mL (≈ 111 µM), respectively.
As to `Cc1ccc(S(=O)(=O)Nc2ccc(C(=O)/C=C/c3ccc(O)c(O)c3)cc2)cc1` [Compound 42, 4′-(p-toluenesulfonylamino)-3,4-dihydroxychalcone], the IC50 in assay [1] stood at 7 µg/mL (≈ 17.1 µM); in assay [2] it was 10 µg/mL (≈ 24.4 µM); in assay [3], 18 µg/mL (≈ 44 µM).
`O=C(/C=C/c1ccccc1O)c1ccc(OS(=O)(=O)c2ccc(O)cc2)cc1` [Compound 86, 4′-(p-hydroxybenzenesulfonate)-2-hydroxychalcone]: the IC50 in assay [1] came to 26 µg/mL (≈ 65.6 µM); in assay [2] it was 30 µg/mL (≈ 75.7 µM); in assay [3] it was 34 µg/mL (≈ 85.8 µM).
In the case of `O=C(/C=C/c1ccc(O)c(O)c1)c1ccc(NS(=O)(=O)c2ccccc2)cc1` [Compound 81, 4′-(benzensulfonylamino)-3,4-dihydroxychalcone], the IC50 in assay [1] is 14 µg/mL (≈ 35.4 µM); in assay [2], 28 µg/mL (≈ 70.8 µM); in assay [3], 24 µg/mL (≈ 60.7 µM).
As to `Cc1ccc(S(=O)(=O)Nc2ccc(C(=O)/C=C/c3cccc(O)c3)cc2)cc1` [Compound 2, 4′-(p-toluenesulfonylamino)-3-hydroxychalcone], the figures for the IC50 in assay [1], in assay [2] and in assay [3] were 37 µg/mL (≈ 94 µM), 36 µg/mL (≈ 91.5 µM) and 39 µg/mL (≈ 99.1 µM), respectively.
Turning to `O=C(/C=C/c1ccc(O)cc1)c1ccc(NS(=O)(=O)c2ccc(F)cc2)cc1` [Compound 24, 4′-(p-fluorobenzensulfonylamino)-4-hydroxychalcone], the IC50 in assay [1] came out at 55 µg/mL (≈ 138 µM); in assay [2], 50 µg/mL (≈ 126 µM); in assay [3], 51 µg/mL (≈ 128 µM).
Turning to `O=C(/C=C/c1ccc(O)cc1)c1ccc(NS(=O)(=O)c2ccc([N+](=O)[O-])cc2)cc1` [Compound 27, 4′-(p-nitrobenzensulfonylamino)-4-hydroxychalcone], the results for the IC50 in assay [1], in assay [2] and in assay [3] were 41 µg/mL (≈ 96.6 µM), 34 µg/mL (≈ 80.1 µM) and 47 µg/mL (≈ 111 µM), respectively.
As for `O=C(/C=C/c1ccc(O)cc1)c1ccc(NS(=O)(=O)c2ccccc2F)cc1` [Compound 26, 4′-(o-fluorobenzensulfonylamino)-4-hydroxychalcone], the IC50 in assay [1] came out at 22 µg/mL (≈ 55.4 µM); in assay [2] it was 20 µg/mL (≈ 50.3 µM); in assay [3], 28 µg/mL (≈ 70.5 µM).
In the case of `O=C(/C=C/c1cc(O)ccc1O)c1ccccc1NS(=O)(=O)c1cccc(O)c1` [Compound 71, 2′-(m-hydroxybenzenesulfonylamino)-2,5-dihydroxychalcone], the IC50 came out at 12 µg/mL (≈ 29.2 µM) in assay [1], 7 µg/mL (≈ 17 µM) in assay [2] and 24 µg/mL (≈ 58.3 µM) in assay [3].

For the origin of these results see US9072698B2, “Method for screening anti-cancer compounds inhibiting function of TM4SF5 and anti-cancer composition containing chalcone compounds” (Seoul National University Industry Foundation, priority 2006, dated 2015).
